Common to all, as to experiment: relative viability (nuclei count vs DMSO), 5 days (fraction); higher = more cells survive
Compound in assay [1]: COc1cccc2cc(-c3nc([C@H]4CC[C@H](C(=O)O)CC4)n4ncnc(N)c34)[nH]c12 [OSI-027] + CC1(C)CCC(c2ccc(Cl)cc2)=C(CN2CCN(c3ccc(C(=O)NS(=O)(=O)c4ccc(N[C@H](CCN5CCOCC5)CSc5ccccc5)c(S(=O)(=O)C(F)(F)F)c4)cc3)CC2)C1 [Navitoclax] (partner 0.5 µM)
The method in brief:
(§1)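 Lung cancer cell lines in 1536-well plates got either a single drug or a fixed anchor-drug dose together with five library-drug doses (not always all listed) in √10 steps, by pin tool, on the day after seeding. Nuclei were counted after 5 days, and relative viability is the treated-to-vehicle ratio of nuclei counts. Values are medians of duplicate plates.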

Compound in assay [2]: COc1cccc2cc(-c3nc([C@H]4CC[C@H](C(=O)O)CC4)n4ncnc(N)c34)[nH]c12 [OSI-027] + Cc1nc(NC(=O)N2CCC[C@H]2C(N)=O)sc1-c1ccnc(C(C)(C)C(F)(F)F)c1 [Alpelisib] (partner 2 µM)
The method, boiled down:
as §1

Compound in assay [3]: COc1cccc2cc(-c3nc([C@H]4CC[C@H](C(=O)O)CC4)n4ncnc(N)c34)[nH]c12 [OSI-027] + O=C(CCCCCCC(=O)Nc1ccccc1)NO [Vorinostat] (partner 1 µM)
The method, boiled down:
as §1

Compound in assay [4]: CCCS(=O)(=O)Nc1ccc(F)c(C(=O)c2c[nH]c3ncc(-c4ccc(Cl)cc4)cc23)c1F [Vemurafenib] + Cc1nc(Nc2ncc(C(=O)Nc3c(C)cccc3Cl)s2)cc(N2CCN(CCO)CC2)n1 [Dasatinib] (partner 0.075 µM)
The method, boiled down:
as §1

As to UMC-11, the relative viability turned out to be 0.317 in assay [1] (first compound 0.01 µM); 0.29 in assay [1] (first compound 0.03162 µM); 0.29 in assay [1] (first compound 0.1 µM); 0.257 in assay [1] (first compound 0.3162 µM); 0.216 in assay [1] (first compound 1 µM); 1.09 in assay [2] (first compound 0.01 µM). Besides, the relative viability was 0.818 in assay [2] (first compound 0.03162 µM); 0.881 in assay [2] (first compound 0.1 µM); 0.597 in assay [2] (first compound 0.3162 µM); 0.49 in assay [2] (first compound 1 µM); 0.379 in assay [3] (first compound 0.01 µM); 0.371 in assay [3] (first compound 0.03162 µM). Besides, the relative viability in assay [3] (first compound 0.1 µM) was 0.376; in assay [3] (first compound 0.3162 µM), 0.348; in assay [3] (first compound 1 µM), 0.275; in assay [4] (first compound 0.03162 µM), 0.465; in assay [4] (first compound 0.1 µM) it was 0.459; in assay [4] (first compound 0.3162 µM) it was 0.455. Further, in assay [4] (first compound 1 µM), the relative viability worked out at 0.537.

For the origin of these results see the supplement of paper PMC10307832.
